Structures are written as SMILES.

For one experiment, the target named is T1, human mPGES-1 (Homo sapiens, UniProt O14684).
T1 construct: made in house; host or cells: COS-1 cells (transient transfection; microsomal fraction used as enzyme)
T1 sequence (O14684 1-152): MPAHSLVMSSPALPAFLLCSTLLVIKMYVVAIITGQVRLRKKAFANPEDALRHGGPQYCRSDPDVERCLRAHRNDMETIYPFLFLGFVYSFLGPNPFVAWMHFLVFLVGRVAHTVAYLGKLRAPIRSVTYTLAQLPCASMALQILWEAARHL
The experiment in a line: Test for mPGES-1 inhibitory activity (microsomal enzyme, PGE2 EIA). The class given is biochemical. As to conditions: microsomes from COS-1 cells transfected with human mPGES-1 cDNA; substrate PGH2 1 μM; 4° C., 4 minutes; PGE2 measured by EIA; read-out: h mPGES1 IC50. In short, it runs like this: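 Enzyme source was microsomes from COS-1 cells transiently expressing human mPGES-1, in sodium phosphate pH 7.2 with 2.5 mM GSH, 1 mM EDTA and 2% DMSO final. After a 15 min preincubation with compound at 4 °C, 1 μM PGH2 (final) reacted for 4 min at 4 °C.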
In general, IC50 refers to the concentration that inhibits the measured activity by half. Take `CCc1nc(-c2c(C(F)(F)F)ccc(CNC(=O)[C@H]3CC[C@H](OCc4ccc(F)c(F)c4)CC3)c2F)[nH]c(=O)c1F` [Example 133, trans-4-[(3,4-difluorobenzyl)oxy]-N-[3-(4-ethyl-5-fluoro-6-oxo-1,6-dihydropyrimidin-2-yl)-2-fluoro-4-(trifluoromethyl)benzyl]cyclohexane-1-carboxamide]: the IC50 was 27 nM. Still for that read-out and setting: the figure for `Cc1cc(=O)[nH]c(-c2c(C(F)(F)F)ccc(CNC(=O)C3CCN(c4ncc(C(F)(F)F)cc4F)CC3)c2F)n1` [Example 49, N-[2-fluoro-3-(4-methyl-6-oxo-1,6-dihydropyrimidin-2-yl)-4-(trifluoromethyl)benzyl]-1-[3-fluoro-5-(trifluoromethyl)pyridin-2-yl]piperidine-4-carboxamide] is 21 nM; for `O=C(NCc1ccc(C(F)(F)F)c(-c2nc(C(F)F)cc(=O)[nH]2)c1F)C1CCN(c2ncc(C(F)(F)F)cc2F)CC1` [Example 55, N-{3-[4-(difluoromethyl)-6-oxo-1,6-dihydropyrimidin-2-yl]-2-fluoro-4-(trifluoromethyl)benzyl}-1-[3-fluoro-5-(trifluoromethyl)pyridin-2-yl]piperidine-4-carboxamide] it is < 1 nM; for `Cc1cc(N2CCC(C(=O)NCc3ccc(C(F)(F)F)c(-c4nc(C(F)(F)F)cc(=O)[nH]4)c3F)CC2)ccc1F` [Example 60, N-{2-fluoro-3-[6-oxo-4-(trifluoromethyl)-1,6-dihydropyrimidin-2-yl]-4-(trifluoromethyl)benzyl}-1-(4-fluoro-3-methylphenyl)piperidine-4-carboxamide] it is < 1 nM.

Consider `O=C(NCc1ccc(C(F)(F)F)c(-c2nc(C(F)(F)F)cc(=O)[nH]2)c1F)C1CCN(c2ccc(Cl)c(F)c2)CC1` [Example 81, 1-(4-chloro-3-fluorophenyl)-N-{2-fluoro-3-[6-oxo-4-(trifluoromethyl)-1,6-dihydropyrimidin-2-yl]-4-(trifluoromethyl)benzyl}piperidine-4-carboxamide], for which the IC50 turned out to be 5 nM.

Regarding `O=c1cc(C(F)(F)F)nc(-c2c(C(F)(F)F)ccc(CNC(=O)[C@H]3CC[C@H](OCc4cc(F)cc(F)c4)CC3)c2F)[nH]1` [Example 117, trans-4-[(3,5-difluorobenzyl)oxy]-N-{2-fluoro-3-[6-oxo-4-(trifluoromethyl)-1,6-dihydropyrimidin-2-yl]-4-(trifluoromethyl)benzyl}cyclohexane-1-carboxamide], the IC50 is < 1 nM. Take `O=c1cc(C(F)(F)F)nc(-c2c(C(F)(F)F)ccc(CNC(=O)[C@H]3CC[C@H](OCc4cccc(C(F)(F)F)c4)CC3)c2F)[nH]1` [Example 112, trans-N-{2-fluoro-3-[6-oxo-4-(trifluoromethyl)-1,6-dihydropyrimidin-2-yl]-4-(trifluoromethyl)benzyl}-4-{[3-(trifluoromethyl)benzyl]oxy}cyclohexane-1-carboxamide]: the IC50 came to 29 nM. Turning to `O=c1cc(C(F)(F)F)nc(-c2c(C(F)(F)F)ccc(CNC(=O)[C@H]3CC[C@H](OCc4ccc(F)c(F)c4)CC3)c2F)[nH]1` [Example 115, trans-4-[(3,4-difluorobenzyl)oxy]-N-{2-fluoro-3-[6-oxo-4-(trifluoromethyl)-1,6-dihydropyrimidin-2-yl]-4-(trifluoromethyl)benzyl}cyclohexane-1-carboxamide], the IC50 came out at 21 nM. Same read-out and setting: the figure for `Cc1nc(-c2c(C(F)(F)F)ccc(CNC(=O)C3CCN(c4ncc(Cl)cc4Cl)CC3)c2F)[nH]c(=O)c1F` [Example 44, 1-(3,5-dichloropyridin-2-yl)-N-[2-fluoro-3-(5-fluoro-4-methyl-6-oxo-1,6-dihydropyrimidin-2-yl)-4-(trifluoromethyl)benzyl]piperidine-4-carboxamide] is < 1 nM; for `Cc1nc(-c2c(C(F)(F)F)ccc(CNC(=O)[C@H]3CC[C@H](OCc4ccc(Cl)cc4)CC3)c2F)[nH]c(=O)c1F` [Example 104, trans-4-[(4-chlorobenzyl)oxy]-N-[2-fluoro-3-(5-fluoro-4-methyl-6-oxo-1,6-dihydropyrimidin-2-yl)-4-(trifluoromethyl)benzyl]cyclohexane-1-carboxamide] it is 1.2 nM; for `Cc1nc(-c2c(C(F)(F)F)ccc(CNC(=O)C3(F)CCN(c4ccc(C(F)(F)F)cn4)CC3)c2F)[nH]c(=O)c1F` [Example 51, 4-fluoro-N-[2-fluoro-3-(5-fluoro-4-methyl-6-oxo-1,6-dihydropyrimidin-2-yl)-4-(trifluoromethyl)benzyl]-1-[5-(trifluoromethyl)pyridin-2-yl]piperidine-4-carboxamide] it is < 1 nM.

The same experiment, now with this note: microsomes of COS-1 cells transfected with human mPGES-1 cDNA; PGH2 1 μM; 4° C., 4 minutes; PGE2 by EIA; read-out: h mPGES1 IC50.
For `CCc1nc(-c2c(C(F)(F)F)ccc(CNC(=O)[C@H]3C[C@H](OCc4ccc(F)cc4Cl)C3)c2F)[nH]c(=O)c1F` [Example 241, trans-3-[(2-chloro-4-fluorobenzyl)oxy]-N-[3-(4-ethyl-5-fluoro-6-oxo-1,6-dihydropyrimidin-2-yl)-2-fluoro-4-(trifluoromethyl)benzyl]cyclobutane-1-carboxamide], the IC50 was < 1 nM.

As to `Cc1nc(-c2c(C(F)(F)F)ccc(CNC(=O)[C@H]3C[C@H](OCc4ccccc4Cl)C3)c2F)[nH]c(=O)c1F` [Example 212, trans-3-[(2-chlorobenzyl)oxy]-N-[2-fluoro-3-(5-fluoro-4-methyl-6-oxo-1,6-dihydropyrimidin-2-yl)-4-(trifluoromethyl)benzyl]cyclobutane-1-carboxamide], the IC50 was < 1 nM. Regarding `O=C(NCc1ccc(C(F)(F)F)c(-c2nc(C(F)(F)F)cc(=O)[nH]2)c1F)C1CCC(Oc2ccc(C(F)(F)F)cn2)CC1` (centres unmarked) [Example 248, N-{2-fluoro-3-[6-oxo-4-(trifluoromethyl)-1,6-dihydropyrimidin-2-yl]-4-(trifluoromethyl)benzyl}-4-{[5-(trifluoromethyl)pyridin-2-yl]oxy}cyclohexane-1-carboxamide], the IC50 is < 1 nM.

For `O=C(NCc1ccc(C(F)(F)F)c(-c2nc(C(F)(F)F)cc(=O)[nH]2)c1F)N1CCC(Oc2ccc(C(F)(F)F)cc2)CC1` [Example 260, N-{2-fluoro-3-[6-oxo-4-(trifluoromethyl)-1,6-dihydropyrimidin-2-yl]-4-(trifluoromethyl)benzyl}-4-[4-(trifluoromethyl)phenoxy]piperidine-1-carboxamide], the IC50 was < 1 nM. Still for that read-out and setting: with `CCc1cc(=O)[nH]c(-c2c(C(F)(F)F)ccc(CNC(=O)[C@H]3C[C@H](OCc4cccc(Cl)c4F)C3)c2F)n1` [Example 208, trans-3-[(3-chloro-2-fluorobenzyl)oxy]-N-[3-(4-ethyl-6-oxo-1,6-dihydropyrimidin-2-yl)-2-fluoro-4-(trifluoromethyl)benzyl]cyclobutane-1-carboxamide] the figure was 8.8 nM. As to `Cc1nc(-c2c(C(F)(F)F)ccc(CNC(=O)[C@H]3C[C@H](OCc4cccc(Cl)c4F)C3)c2F)[nH]c(=O)c1F` [Example 225, trans-3-[(3-chloro-2-fluorobenzyl)oxy]-N-[2-fluoro-3-(5-fluoro-4-methyl-6-oxo-1,6-dihydropyrimidin-2-yl)-4-(trifluoromethyl)benzyl]cyclobutane-1-carboxamide], the IC50 is < 1 nM. The same measure, in the same setting: with `CCc1cc(=O)[nH]c(-c2c(C(F)(F)F)ccc(CNC(=O)[C@H]3C[C@H](OCc4cc(F)cc(Cl)c4)C3)c2F)n1` [Example 211, trans-3-[(3-chloro-5-fluorobenzyl)oxy]-N-[3-(4-ethyl-6-oxo-1,6-dihydropyrimidin-2-yl)-2-fluoro-4-(trifluoromethyl)benzyl]cyclobutane-1-carboxamide] the figure was 9.3 nM. In the case of `CCc1nc(-c2c(C(F)(F)F)ccc(CNC(=O)[C@H]3C[C@H](OCc4ccc(Cl)cc4F)C3)c2F)[nH]c(=O)c1F` [Example 236, trans-3-[(4-chloro-2-fluorobenzyl)oxy]-N-[3-(4-ethyl-5-fluoro-6-oxo-1,6-dihydropyrimidin-2-yl)-2-fluoro-4-(trifluoromethyl)benzyl]cyclobutane-1-carboxamide], the IC50 was < 1 nM. Turning to `O=c1cc(C(F)(F)F)nc(-c2c(C(F)(F)F)ccc(CNC(=O)[C@H]3C[C@H](Oc4ccc(Cl)cc4)C3)c2F)[nH]1` [Example 255, trans-3-(4-chlorophenoxy)-N-{2-fluoro-3-[6-oxo-4-(trifluoromethyl)-1,6-dihydropyrimidin-2-yl]-4-(trifluoromethyl)benzyl}cyclobutane-1-carboxamide], the IC50 worked out at 2.8 nM. On the same count and under the same terms, the figure for `CCc1cc(=O)[nH]c(-c2c(C(F)(F)F)ccc(CNC(=O)[C@H]3C[C@H](OCc4ccccc4C(F)(F)F)C3)c2F)n1` [Example 198, trans-N-[3-(4-ethyl-6-oxo-1,6-dihydropyrimidin-2-yl)-2-fluoro-4-(trifluoromethyl)benzyl]-3-{[2-(trifluoromethyl)benzyl]oxy}cyclobutane-1-carboxamide] is 1.4 nM; for `O=c1cc(C(F)(F)F)nc(-c2c(C(F)(F)F)ccc(CNC(=O)[C@H]3C[C@H](OCc4cc(F)cc(Cl)c4)C3)c2F)[nH]1` [Example 159, trans-3-[(3-chloro-5-fluorobenzyl)oxy]-N-{2-fluoro-3-[6-oxo-4-(trifluoromethyl)-1,6-dihydropyrimidin-2-yl]-4-(trifluoromethyl)benzyl}cyclobutane-1-carboxamide] it is < 12 nM; for `Cc1nc(-c2c(C(F)(F)F)ccc(CNC(=O)[C@H]3C[C@H](OCc4cccc(F)c4F)C3)c2F)[nH]c(=O)c1F` [Example 223, trans-3-[(2,3-difluorobenzyl)oxy]-N-[2-fluoro-3-(5-fluoro-4-methyl-6-oxo-1,6-dihydropyrimidin-2-yl)-4-(trifluoromethyl)benzyl]cyclobutane-1-carboxamide] it is < 1 nM.
